Source: US20100215618A1, “NOVEL COMPOUNDS - 644” (Arrow Therapeutics Limited, priority 2009, published 2010)
Where two headings read alike, the source gives them in different places.

What was measured:
[1] = system: HCV genotype 1a replicon cells Htat2ANeo; assay: 1a Replicon Assay (cell-based anti-NS5a ELISA); details: Hepatitis C virus, 72 h
Protocol: HCV genotype la replicon cells Htat2ANeo (University of Texas), containing neomycin phosphotransferase fusion protein and EMCV-IRES driven HCV polyprotein with cell culture adaptive mutations, and control cells, Et2AN.
Cells were cultured at 37° C./5% CO2 and split twice a week. G418 at 0.5 mg/ml and Blastocidin at 2 mg/ml were added to the culture medium but not the assay medium.
The culture medium consisted of DMEM with […] glucose and Glutamax (Gibco 61965-026) supplemented with 1× non-essential amino acids (Invitrogen 11140-035), 0.5 mg/ml G418 (Invitrogen 10131-027), 2 mg/ml Blastocidin (PAA) and 10% is Australian foetal calf serum (Invitrogen 10099-141).
Replicon and control cells were trypsinised and counted. Replicon cells were diluted to 90,000 cells/ml and 100 μl of this used to seed columns 2-4, […] and 10-12 of a black, clear bottom 96-well plate for every three compounds to be tested for IC50. Control cells were diluted to 60,000 cells/ml and 100 μl of this used to seed columns 1, 5 and 9 of the plate. Well H1 was left empty as the blank. Plates were then incubated at 37° C./5% CO2 for 24 h.
On the following day compound dilutions were prepared in medium at twice their desired final concentration in a clear round bottomed plate.
Controls and compounds were transferred from the dilution plate to the assay plates (containing the cells) at 100 μl/well in quadruplicate wells, one well containing control cells and 3 wells containing replicon cells.
Exception: no compound was added to row H of the plate and 100 μl of 1% DMSO was added to these instead. Plates were then incubated at 37° C. with 5% CO2 for 72 h. At the end of the incubation time, any reduction in cell viability was assayed and a cell-based enzyme linked immunosorbent assay (ELISA) was performed. The media/compound was removed from all wells and replaced with 100 μl/well serum-free media and 20 μl/well Cell Titre Blue (Promega G8081). Following incubation at 37° C./5% CO2 for 2 h plates were read on a microplate fluorometer (Molecular Devices) using an excitation of 570 nm and an emission of 590 nm The TD50, the concentration of drug required to reduce 50% of Cell Titre Blue relative to the DMSO controls, was calculated by plotting the fluorescence at 590 nm after substraction of background against drug concentration.
The media/Cell Titre Blue was removed and plates washed in PBS and gently tapped dry before addition of 50 μL per well of 75% acetone/25% methanol mixture for 3 minutes. The fixative was then discarded and wells were washed with PBS before addition of 100 μl/well of blocking solution (2% non-fat dry milk and 0.05% Tween-20 in 0.85% NaCl). Plates were then incubated at 37° C. in a shaking incubator for 60 min. Blocking solution was discarded and 50 μl of mouse anti-NS5a antibody (Virostat 1877) at 1:100 dilution in blocking buffer was added to all wells. Plates were incubated at 37° C. in a shaking incubator for 90 min Antibody was then discarded and plates were washed 4 times by immersion in 0.85% NaCl/0.05% Tween-20. After washing plates were tapped dry gently and 50 μl of secondary antibody (Dako P0260 Rabbit anti-mouse horseradish peroxidase) at 1:1000 dilution in blocking buffer was added to the wells. Plates were incubated at 37° C. in a shaking incubator for 60 min. Antibody was discarded and plates were washed 6 times by immersion in 0.85% NaCl/0.05% Tween-20 and once in PBS. Finally, 50 μl of substrate (SigmaFast ortho-phenylene diamine dihydrochloride (OPD)) was added per well and the colorimetric reaction was allowed to proceed in the dark for 5 to 15 minutes depending on the strength or the signal. The reaction was stopped by addition of 25 μl/well of 20% sulphuric acid. Plates were read on the SpectraMax microplate reader at 490 nm fixed wavelength. […]

[2] = system: HCV replicon cells Huh 9B (genotype 1b); assay: 1b Replicon Assay (luciferase readout); format: cell-based; details: Hepatitis C virus, Huh 9B replicon cells, 72 h, luciferase activity
[3] = system: HCV replicon cells Huh 9B; format: cell-based; details: Huh 9B replicon cells, 72 h, methylene blue, total cell area reduced by 50%
Protocol: HCV replicon cells Huh 9B (ReBlikon), containing the firefly luciferase-ubiquitin-neomycin phosphotransferase fusion protein and EMCV-IRES driven HCV polyprotein with cell culture adaptive mutations.
Replicon cells were trypsinised and counted. Cells were diluted to 100,000 cells/ml and 100 μl used to seed one opaque white 96-well plate (for the replicon assay) and one flat-bottomed clear plate (for the tox assay) for every five compounds to be tested for IC50. Wells G12 and H12 were left empty in the clear plate as the blank. Plates were then incubated at 37° C./5% CO2 for 24 h.
On the following day compound dilutions were prepared in medium at twice their desired final concentration in a clear round bottomed plate. All dilutions have a final DMSO concentration of 1%.
Controls and compounds were transferred from the dilution plates to the assay plates (containing the cells) at 100 μl/well in duplicate wells.
Exception: no compound was added to wells A1 and A2 of either plate and 100 μl of 1% DMSO was added to these instead. Plates were then incubated at 37° C./5% CO2 for 72 h.
The clear plate was stained with 100 μA 0.5% methylene blue in 50% ethanol at room temperature for 1 h, followed by solvation of the absorbed methylene blue in 100 μl per well of 1% lauroylsarcosine. Absorbance of the plate was measured on a microplate spectrophotometer (Molecular Devices) and the absorbance for each concentration of compound expressed as a proportion of the relative DMSO control. The TD50, the is concentration of drug required to reduce the total cell area by 50% relative to the DMSO controls, was calculated by plotting the absorbance at 620 nm after background substraction against drug concentration.

[4] = read-out: pIC50 1a Replicon (converted)
[5] = read-out: pIC50 1b Replicon (converted)

| Compound | IC50 ([1]; read-out: HCV IC50 Elisa 1a) | IC50 [1, 4] | IC50 ([2]; read-out: HCV IC50 1b Replicon) | IC50 [2, 5] | HCV TD50 Replicon [3] |
| --- | --- | --- | --- | --- | --- |
| CC(C)(C)OC(=O)N[C@H](C(=O)N1CCOC[C@H]1c1ncc(-c2ccc(-c3ccc(C(=O)Nc4ccc(CN5CCS(=O)(=O)CC5)cc4)cc3)cc2)[nH]1)c1ccccc1 [Example 48, tert-Butyl N-[(1S)-2-[(3R)-3-[5-[4-[4-[[4-[(1,1-dioxo-1,4-thiazinan-4-yl)methyl]phenyl]carbamoyl]phenyl]phenyl]-1H-imidazol-2-yl]morpholin-4-yl]-2-oxo-1-phenyl-ethyl]carbamate] | 0.0526 µM | 0.0525 µM | 0.00051 µM | 0.000513 µM | >25 µM |
| COC(=O)N[C@H](C(=O)N1CCOC[C@H]1c1ncc(-c2ccc(-c3ccc(C(=O)Nc4ccc(CN5CCS(=O)(=O)CC5)cc4)cc3)cc2)[nH]1)C(C)C [Example 46, Methyl N-[(1S)-1-[(3R)-3-[5-[4-[4-[[4-[(1,1-dioxo-1,4-thiazinan-4-yl)methyl]phenyl]carbamoyl]phenyl]phenyl]-1H-imidazol-2-yl]morpholine-4-carbonyl]-2-methyl-propyl]carbamate] | 0.0194 µM | 0.0195 µM | 0.00071 µM | 0.000708 µM | >25 µM |
| COC(=O)N[C@H](C(=O)N1CCC[C@H]1c1ncc(-c2ccc(-c3cccc(C(=O)Nc4ccc(CN5CCS(=O)(=O)CC5)cc4)c3)cc2)[nH]1)c1ccccc1 [Example 30, Methyl N-[(1S)-2-[(2S)-2-[5-[4-[3-[[4-[(1,1-dioxo-1,4-thiazinan-4-yl)methyl]phenyl]carbamoyl]phenyl]phenyl]-1H-imidazol-2-yl]pyrrolidin-1-yl]-2-oxo-1-phenyl-ethyl]carbamate] | 2.48 µM | 2.45 µM | 0.0012 µM | 0.0012 µM | >25 µM |
| COC(=O)N[C@@H](C(=O)N1CCC[C@H]1c1ncc(-c2ccc(-c3cccc(C(=O)Nc4ccc(CN5CCS(=O)(=O)CC5)cc4)c3)cc2)[nH]1)c1ccccc1 [Example 31, Methyl N-[(1R)-2-[(2S)-2-[5-[4-[3-[[4-[(1,1-dioxo-1,4-thiazinan-4-yl)methyl]phenyl]carbamoyl]phenyl]phenyl]-1H-imidazol-2-yl]pyrrolidin-1-yl]-2-oxo-1-phenyl-ethyl]carbamate] | 2.7 µM | 2.69 µM | 0.00091 µM | 0.000912 µM | >25 µM |
| CCN(CC)[C@@H](C(=O)N1CCC[C@H]1c1ncc(-c2ccc(-c3cccc(C(=O)Nc4ccc(CN5CCS(=O)(=O)CC5)cc4)c3)cc2)[nH]1)c1ccccc1 [Example 32, 3-[4-[2-[(2S)-1-[(2R)-2-(diethylamino)-2-phenyl-acetyl]pyrrolidin-2-yl]-1H-imidazol-5-yl]phenyl]-N-[4-[(1,1-dioxo-1,4-thiazinan-4-yl)methyl]phenyl]benzamide] | 1.15 µM | 1.15 µM | 0.00021 µM | 0.000209 µM | >25 µM |
| CN(C)[C@@H](C(=O)N1CCOC[C@H]1c1ncc(-c2ccc(-c3ccc(C(=O)Nc4ccc(CN5CCS(=O)(=O)CC5)cc4)cc3)cc2)[nH]1)c1ccccc1 [Example 49, 4-[4-[2-[(3R)-4-[(2R)-2-(dimethylamino)-2-phenyl-acetyl]morpholin-3-yl]-1H-imidazol-5-yl]phenyl]-N-[4-[(1,1-dioxo-1,4-thiazinan-4-yl)methyl]phenyl]benzamide] | 0.0778 µM | 0.0776 µM | 0.00088 µM | 0.000891 µM | 19.7 µM |
| COC(=O)N[C@H](C(=O)N1CCC[C@H]1c1ncc(-c2ccc(-c3cccc(C(=O)Nc4ccc(CN5CCS(=O)(=O)CC5)cc4)c3)cc2)[nH]1)C(C)C [Example 28, Methyl N-[(1S)-1-[(2S)-2-[5-[4-[3-[[4-[(1,1-dioxo-1,4-thiazinan-4-yl)methyl]phenyl]carbamoyl]phenyl]phenyl]-1H-imidazol-2-yl]pyrrolidine-1-carbonyl]-2-methyl-propyl]carbamate] | 2.08 µM | 2.09 µM | 0.00732 µM | 0.00724 µM | >25 µM |
| COC(=O)N[C@@H](C)C(=O)N1CCC[C@H]1c1ncc(-c2ccc(-c3ccc(C(=O)Nc4ccc(CN5CCS(=O)(=O)CC5)cc4)cc3)cc2)[nH]1 [Example 4, Methyl N-[(1S)-2-[(2S)-2-[5-[4-[4-[[4-[(1,1-dioxo-1,4-thiazinan-4-yl)methyl]phenyl]carbamoyl]phenyl]phenyl]-1H-imidazol-2-yl]pyrrolidin-1-yl]-1-methyl-2-oxoethyl]carbamate] | 0.0259 µM | 0.0257 µM | 0.00118 µM | 0.00117 µM | 22.44 µM |
| COC(=O)N[C@@H](C)C(=O)N1CCC[C@H]1c1ncc(-c2ccc(-c3cccc(C(=O)Nc4ccc(CN5CCS(=O)(=O)CC5)cc4)c3)cc2)[nH]1 [Example 29, Methyl N-[(1S)-2-[(2S)-2-[5-[4-[3-[[4-[(1,1-dioxo-1,4-thiazinan-4-yl)methyl]phenyl]carbamoyl]phenyl]phenyl]-1H-imidazol-2-yl]pyrrolidin-1-yl]-1-methyl-2-oxo-ethyl]carbamate] | 7.62 µM | 7.59 µM | 0.0334 µM | 0.0331 µM | >25 µM |
| COC(=O)N[C@@H](CO)C(=O)N1CCC[C@H]1c1ncc(-c2ccc(-c3ccc(C(=O)Nc4ccc(CN5CCS(=O)(=O)CC5)cc4)cc3)cc2)[nH]1 [Example 11, Methyl N-[(1S)-2-[(2S)-2-[5-[4-[4-[[4-[(1,1-dioxo-1,4-thiazinan-4-yl)methyl]phenyl]carbamoyl]phenyl]phenyl]-1H-imidazol-2-yl]pyrrolidin-1-yl]-1-(hydroxymethyl)-2-oxo-ethyl]carbamate] | 0.019 µM | 0.0191 µM | 0.00113 µM | 0.00112 µM | >21 µM |
